We go through 5 compounds from patent US10182500B2, “Curable composition for photoimprint, cured product, and method of producing film having pattern, optical component, circuit board, or electronic component using the composition” (CANON KABUSHIKI KAISHA, priority 2014, dated 2019).

The conditions of data set [1]: composition mainly composed of an acrylic monomer; cited from earlier work.
The nature of data set [2]: Saturated solubility in liquid condensable gas (PFP), visual observation. Particulars: for Saturated solubility: to PFP, liquid state at 5° C. and 1 atm.
Description: (§1) An arbitrary amount of a photopolymerization initiator is weighed in a sample bottle at 23° C., and a condensable gas cooled to 5° C. to a liquid state is gradually added to the bottle until the photopolymerization initiator is completely dissolved. The sample bottle is capped and is left to stand in a refrigerator at 5° C. for 1 hour. The sample bottle is then subjected to visual observation whether the photopolymerization initiator is completely dissolved. The weight of the weighed photopolymerization initiator is divided by the sum of the weight of the photopolymerization initiator and the weight of the condensable gas in a liquid state, and the resulting quotient is expressed in percentage as the saturated solubility.
(§2) The sample bottle was capped and was left to stand in a refrigerator at 5° C. for 1 hour. The sample bottle was then visually observed.
The conditions of data set [3]: 1 h.
Description: as §1, §2

The structures appear in SMILES notation. Where two headings read alike, the source gives them in different places.

Take `FC(F)CC(F)(F)F` [1,1,1,3,3-pentafluoropropane]: in data set [1], the “PFP dissolved in curable composition for photoimprint” value is reported as “about 40 % by volume”.
Take `COC(OC)(C(=O)c1ccccc1)c1ccccc1` [Formula (6), benzyl dimethyl ketal]: the saturated solubility result in data set [2] (at 5° C. in PFP being a liquid state at 5° C. and 1 atm) is recorded as “higher than 2.67 % by weight”.
Consider `CCN(CC)c1ccc(C(=O)c2ccc(N(CC)CC)cc2)cc1` [Formula (4), 4,4′-bis(diethylamino)benzophenone], for which the Saturated solubility in data set [2] is less than 1.0 % by weight.
In the case of `Cc1cc(C)c(C(=O)P(=O)(c2ccccc2)c2ccccc2)c(C)c1` [Formula (1), 2,4,6-trimethylbenzoyldiphenylphosphine oxide], in data set [3], the Saturated solubility is on record as less than 1.0 % by weight and the saturated solubility entry was “less than 1 % by weight”.
In the case of `CC(C)c1ccc2sc3ccccc3c(=O)c2c1` [Formula (3), 2-isopropylthioxanthone], the Saturated solubility in data set [2] is given as less than 1.0 % by weight.
